Test results taken from patent US20210283139A1, “BIFUNCTIONAL MOLECULES FOR TARGETING UCHL5” (AMPHISTA THERAPEUTICS LTD, priority 2018, published 2021).

Legend:
Type in all cases: cell-based
Brd2 [1] = target: T1, Brd2 (Homo sapiens, UniProt P25440); assay: Concentration-dependent BET degradation, immunoblot, HEK293 cells; design: endogenous in cells; host or cells: HEK293; details: HEK293, Brd2, 6 h treatment, 1 nM-10 μM; for Dmax: read-out: Dmax (%) maximum degradation observed
Method: (§1) Cell culture. HeLa (CCL-2) and HEK293 (CRL-1573) cells were purchased from ATCC and cultured in DMEM medium (Gibco) supplemented with 10% FBS, 100 μg/mL penicillin/streptomycin and L-glutamine. Cells were grown at 37° C. and 5% CO2, and were kept no longer than 30 passages. All cell lines were routinely tested for mycoplasma contamination using MycoAlert kit from Lonza.
(§2) Immunoblotting. proteins were separated by SDS-PAGE on NuPage 4-12% Bis-Tris gels, followed by transfer to Amersham Protran 0.45 NC nitrocellulose membrane (GE Healthcare) using wet transfer. Membranes were blocked using 5% w/v milk in Tris-buffered saline (TBS) with 0.1% Tween-20. Blots were probed (overnight at 4° C.) using anti-Brd2 (Abcam ab139690, 1:2,000 dilution), anti-Brd3 (Abcam ab50818, 1:500 dilution), and anti-Brd4 (Abcam ab128874, 1:1,000 dilution) primary antibodies, as appropriate. The next day, blots were washed with TBST and incubated (1 hr at RT) with anti-Tubulin hFAB-rhodamine (BioRad, 12004166) primary antibody, and either anti-rabbit IRDye 800CW (Licor 1:10,000 dilution) or anti-mouse IRDye 800CW (Licor 1:10,000 dilution) secondary antibody. Blots were developed using a Bio-Rad ChemiDoc MP Imaging System, and band quantification was performed using Image Studio software (LiCor). Band intensities were normalized to the tubulin loading control and reported as % of the average 0.1% DMSO vehicle intensity. Degradation data was plotted and analysed using Prism (Graphpad, version 8).
(§3) HeLa (5×10^5) and HEK293 (1×10^6) cells were seeded in standard 6-well plates (2 mL medium) overnight before treatment with compounds at the desired concentration (1 nM-10 μM), with a final DMSO concentration of 0.1% v/v. After 6 h treatment time, cells were washed with DPBS (Gibco) and lysed using 85 μL RIPA buffer (Sigma-Aldrich) supplemented with cOmplete Mini EDTA-free protease inhibitor cocktail (Roche) and benzonase. Lysates were clarified by centrifugation (20,000g, 10 min, 4° C.) and the total protein content of the supernatant was quantified using a Bradford colorimetric assay. Samples were prepared using equal amounts of total protein and LDS sample buffer (Invitrogen.
(§4) Representative blots in FIG. 3 show depletion of Brd2, Brd3 and Brd4 protein levels following treatment with increasing concentrations of representative compounds. Band intensities were normalized to the β-tubulin loading control and reported as % of the average 0.1% DMSO vehicle intensity, with each point representing mean±SEM of two independent experiments (n=2). Degradation data was plotted and analysed using Prism (Graphpad, version 8)

Brd3 [2] = target: T2, Brd3 (Homo sapiens, UniProt Q15059); assay: as above; design: endogenous in cells; host or cells: HEK293; details: HEK293, Brd3, 6 h treatment, 1 nM-10 μM; for Dmax: read-out: Dmax (%) maximum degradation observed
Method: as §1, §2, §3, §4

Brd4 (S) [3] = target: T3, Brd4 (S) (Homo sapiens, UniProt O60885); assay: Concentration-dependent BET degradation, immunoblot, HeLa cells; details: 6 h treatment, 1 nM-10 μM; for Dmax: read-out: Dmax (%) maximum degradation observed
T3 construct: endogenous in cells; host or cells: HEK293, HeLa
Method: as §1, §2, §3, §4

Brd4 (L) [4] = target: T4, Brd4 (L) (Homo sapiens, UniProt O60885); assay: as above; details: 6 h treatment, 1 nM-10 μM; for Dmax: read-out: Dmax (%) maximum degradation observed
T4 construct: endogenous in cells; host or cells: HEK293, HeLa
Method: as §1, §2, §3, §4

Brd4 (S) [5] = target: T3, Brd4 (S); assay: Concentration-dependent BET degradation, immunoblot, HEK293 cells; details: 6 h treatment, 1 nM-10 μM; for Dmax: read-out: Dmax (%) maximum degradation observed
Method: as §1, §2, §3, §4

Brd4 (L) [6] = target: T4, Brd4 (L); assay: as above; details: 6 h treatment, 1 nM-10 μM; for Dmax: read-out: Dmax (%) maximum degradation observed
Method: as §1, §2, §3, §4

Brd2 [7] = target: T1, Brd2; assay: Concentration-dependent BET degradation, immunoblot, HeLa cells; design: endogenous in cells; host or cells: HeLa; details: Brd2, 6 h treatment, 1 nM-10 μM; for Dmax: read-out: Dmax (%) maximum degradation observed
Method: as §1, §2, §3, §4

Brd3 [8] = target: T2, Brd3; assay: as above; design: endogenous in cells; host or cells: HeLa; details: Brd3, 6 h treatment, 1 nM-10 μM; for Dmax: read-out: Dmax (%) maximum degradation observed
Method: as §1, §2, §3, §4

Brd2 [9] = target: T1, Brd2; assay: Time-dependent BET degradation, immunoblot, HEK293 cells; design: endogenous in cells; host or cells: HEK293; details: HEK293, Brd2, 1 μM, timecourse 0-8 h
Method: as §1, §2
as §3, with “(3×10^5)” for “(5×10^5)”, “(0.5×10^6)” for “(1×10^6)”, “1 μM concentration,” for “the desired concentration (1 nM-10 μM),”, “incubation for the desired time (0-8 h),” for “6 h treatment time,”, “(20,000 g,” for “(20,000g,”, “(Invitrogen).” for “(Invitrogen.”
as §4, with “FIG. 4” for “FIG. 3”, “following 1 μM” for “following”, “treatment at various time points” for “treatment”, “with” for “with increasing concentrations of”, “version 8).” for “version 8)”
(§5) T½ (h) is the time required to deplete 50% of the protein relative to DMSO

Brd3 [10] = target: T2, Brd3; assay: as above; design: endogenous in cells; host or cells: HEK293; details: HEK293, Brd3, 1 μM, timecourse 0-8 h
Method: as §1, §2
as §3, with “(3×10^5)” for “(5×10^5)”, “(0.5×10^6)” for “(1×10^6)”, “1 μM concentration,” for “the desired concentration (1 nM-10 μM),”, “incubation for the desired time (0-8 h),” for “6 h treatment time,”, “(20,000 g,” for “(20,000g,”, “(Invitrogen).” for “(Invitrogen.”
as §4, with “FIG. 4” for “FIG. 3”, “following 1 μM” for “following”, “treatment at various time points” for “treatment”, “with” for “with increasing concentrations of”, “version 8).” for “version 8)”
as §5

Brd4 (S) [11] = target: T3, Brd4 (S); assay: Time-dependent BET degradation, immunoblot, HeLa cells; design: dose or concentration left out as unconfirmed; details: timecourse 0-8 h
Method: as §1, §2
as §3, with “(3×10^5)” for “(5×10^5)”, “(0.5×10^6)” for “(1×10^6)”, “1 μM concentration,” for “the desired concentration (1 nM-10 μM),”, “incubation for the desired time (0-8 h),” for “6 h treatment time,”, “(20,000 g,” for “(20,000g,”, “(Invitrogen).” for “(Invitrogen.”
as §4, with “FIG. 4” for “FIG. 3”, “following 1 μM” for “following”, “treatment at various time points” for “treatment”, “with” for “with increasing concentrations of”, “version 8).” for “version 8)”
as §5

Brd4 (L) [12] = target: T4, Brd4 (L); assay: as above; design: dose or concentration left out as unconfirmed; details: timecourse 0-8 h
Method: as §1, §2
as §3, with “(3×10^5)” for “(5×10^5)”, “(0.5×10^6)” for “(1×10^6)”, “1 μM concentration,” for “the desired concentration (1 nM-10 μM),”, “incubation for the desired time (0-8 h),” for “6 h treatment time,”, “(20,000 g,” for “(20,000g,”, “(Invitrogen).” for “(Invitrogen.”
as §4, with “FIG. 4” for “FIG. 3”, “following 1 μM” for “following”, “treatment at various time points” for “treatment”, “with” for “with increasing concentrations of”, “version 8).” for “version 8)”
as §5

Brd2 [13] = target: T1, Brd2; assay: as above; design: endogenous in cells; host or cells: HeLa; details: Brd2, 1 μM, timecourse 0-8 h
Method: as §1, §2
as §3, with “(3×10^5)” for “(5×10^5)”, “(0.5×10^6)” for “(1×10^6)”, “1 μM concentration,” for “the desired concentration (1 nM-10 μM),”, “incubation for the desired time (0-8 h),” for “6 h treatment time,”, “(20,000 g,” for “(20,000g,”, “(Invitrogen).” for “(Invitrogen.”
as §4, with “FIG. 4” for “FIG. 3”, “following 1 μM” for “following”, “treatment at various time points” for “treatment”, “with” for “with increasing concentrations of”, “version 8).” for “version 8)”
as §5

Brd3 [14] = target: T2, Brd3; assay: as above; design: endogenous in cells; host or cells: HeLa; details: Brd3, 1 μM, timecourse 0-8 h
Method: as §1, §2
as §3, with “(3×10^5)” for “(5×10^5)”, “(0.5×10^6)” for “(1×10^6)”, “1 μM concentration,” for “the desired concentration (1 nM-10 μM),”, “incubation for the desired time (0-8 h),” for “6 h treatment time,”, “(20,000 g,” for “(20,000g,”, “(Invitrogen).” for “(Invitrogen.”
as §4, with “FIG. 4” for “FIG. 3”, “following 1 μM” for “following”, “treatment at various time points” for “treatment”, “with” for “with increasing concentrations of”, “version 8).” for “version 8)”
as §5

Brd4 (S) [15] = target: T3, Brd4 (S); assay: Time-dependent BET degradation, immunoblot, HEK293 cells; design: dose or concentration left out as unconfirmed; details: timecourse 0-8 h
Method: as §1, §2
as §3, with “(3×10^5)” for “(5×10^5)”, “(0.5×10^6)” for “(1×10^6)”, “1 μM concentration,” for “the desired concentration (1 nM-10 μM),”, “incubation for the desired time (0-8 h),” for “6 h treatment time,”, “(20,000 g,” for “(20,000g,”, “(Invitrogen).” for “(Invitrogen.”
as §4, with “FIG. 4” for “FIG. 3”, “following 1 μM” for “following”, “treatment at various time points” for “treatment”, “with” for “with increasing concentrations of”, “version 8).” for “version 8)”
as §5

Brd4 (L) [16] = target: T4, Brd4 (L); assay: as above; design: dose or concentration left out as unconfirmed; details: timecourse 0-8 h
Method: as §1, §2
as §3, with “(3×10^5)” for “(5×10^5)”, “(0.5×10^6)” for “(1×10^6)”, “1 μM concentration,” for “the desired concentration (1 nM-10 μM),”, “incubation for the desired time (0-8 h),” for “6 h treatment time,”, “(20,000 g,” for “(20,000g,”, “(Invitrogen).” for “(Invitrogen.”
as §4, with “FIG. 4” for “FIG. 3”, “following 1 μM” for “following”, “treatment at various time points” for “treatment”, “with” for “with increasing concentrations of”, “version 8).” for “version 8)”
as §5

MV4-11 cells = assay: Anti-proliferative effect, CellTiter-Glo assay; details: MV4-11, CellTiter-Glo, 72 h incubation, 5 μM and below
Method: The anti-proliferative effects of representative compounds were measured using the CellTiter-Glo assay (Promega). MV4-11 cells were incubated in a sterile, white, clear-bottomed 384-well cell-culture microplate (Greiner Bio-one), at 2× concentration in RPMI media and a volume of 25 μl. The next day, test compounds were serially diluted in RPMI media to 2× concentration, then added to cells to make a final volume of 50 μl. After a 72 h incubation 25 μl of CellTiter-Glo reagent was added to each well. Following 15 minute incubation the luminescence signal was read on a Pherastar FS. The final concentration of assay components are as follows: 3×10^5 cells/mL, 0.05% DMSO, 5 μM and below compound. Data (FIG. 11) was processed and dose-response curves generated using Prism 8 (Graphpad).

T1 sequence (P25440 whole entry): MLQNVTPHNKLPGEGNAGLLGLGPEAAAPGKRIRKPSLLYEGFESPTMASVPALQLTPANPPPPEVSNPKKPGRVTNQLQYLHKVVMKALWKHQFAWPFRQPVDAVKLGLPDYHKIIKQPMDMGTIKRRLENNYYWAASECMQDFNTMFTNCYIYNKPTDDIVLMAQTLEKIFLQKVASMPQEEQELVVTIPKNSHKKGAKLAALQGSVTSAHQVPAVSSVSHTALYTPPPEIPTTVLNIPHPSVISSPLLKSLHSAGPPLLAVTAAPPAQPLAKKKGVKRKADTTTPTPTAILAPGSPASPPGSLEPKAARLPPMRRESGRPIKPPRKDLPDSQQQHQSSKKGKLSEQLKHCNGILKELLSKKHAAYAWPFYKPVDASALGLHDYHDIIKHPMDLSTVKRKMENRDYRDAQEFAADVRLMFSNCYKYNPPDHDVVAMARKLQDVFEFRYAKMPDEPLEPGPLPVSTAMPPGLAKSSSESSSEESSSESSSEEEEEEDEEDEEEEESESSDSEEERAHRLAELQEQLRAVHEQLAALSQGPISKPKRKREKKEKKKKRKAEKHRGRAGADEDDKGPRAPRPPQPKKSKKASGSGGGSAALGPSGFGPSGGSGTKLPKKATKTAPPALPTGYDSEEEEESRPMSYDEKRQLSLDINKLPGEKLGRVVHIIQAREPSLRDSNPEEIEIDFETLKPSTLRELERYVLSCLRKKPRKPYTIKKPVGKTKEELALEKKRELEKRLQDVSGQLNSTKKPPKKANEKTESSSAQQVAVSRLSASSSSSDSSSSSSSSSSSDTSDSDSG
T2 sequence (Q15059 whole entry): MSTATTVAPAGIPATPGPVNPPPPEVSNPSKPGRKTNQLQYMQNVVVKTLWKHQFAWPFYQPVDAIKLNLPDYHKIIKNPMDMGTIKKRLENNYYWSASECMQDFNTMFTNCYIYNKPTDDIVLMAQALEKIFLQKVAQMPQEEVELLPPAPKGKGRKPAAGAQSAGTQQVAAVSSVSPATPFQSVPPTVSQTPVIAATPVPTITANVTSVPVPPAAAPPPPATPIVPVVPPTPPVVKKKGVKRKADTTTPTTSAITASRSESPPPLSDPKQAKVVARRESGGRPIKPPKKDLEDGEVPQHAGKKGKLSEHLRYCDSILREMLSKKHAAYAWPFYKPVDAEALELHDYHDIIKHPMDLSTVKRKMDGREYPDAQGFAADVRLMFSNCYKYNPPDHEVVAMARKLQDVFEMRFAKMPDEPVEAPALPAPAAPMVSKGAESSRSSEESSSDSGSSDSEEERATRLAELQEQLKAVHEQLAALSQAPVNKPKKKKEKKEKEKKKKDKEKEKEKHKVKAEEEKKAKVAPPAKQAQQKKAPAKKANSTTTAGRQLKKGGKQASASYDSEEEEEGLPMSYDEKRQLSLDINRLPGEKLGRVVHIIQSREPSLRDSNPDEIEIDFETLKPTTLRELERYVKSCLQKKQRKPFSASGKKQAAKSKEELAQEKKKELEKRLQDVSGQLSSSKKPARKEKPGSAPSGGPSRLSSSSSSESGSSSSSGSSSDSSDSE

CCCC(NC(=O)C(C#N)Cc1cccc(Br)n1)c1ccc(OCCOCCOCCOCCOCCOCCOCCNC(=O)c2ccc(-c3ccc4c(c3)[C@H](Nc3ccc(Cl)cc3)C[C@H](C)N4C(C)=O)cc2)cc1 (stereo partly drawn) [Example 05IB12]
Dmax (Brd2 [1]): ≤ 25%
Dmax (Brd3 [2]): ≤ 25%
Dmax (Brd4 (S) [3]): ≤ 25%
Dmax (Brd4 (L) [4]): ≤ 25%
Dmax (Brd4 (S) [5]): 26 to 50%
Dmax (Brd4 (L) [6]): ≤ 25%
Dmax (Brd2 [7]): ≤ 25%
Dmax (Brd3 [8]): 26 to 50%

CCCC(NC(=O)/C(C#N)=C/c1cccc(Br)n1)c1ccc(OCC=NOCC(=O)NCCOCCNC(=O)c2ccc3c(c2)[C@H](Nc2ccc(Cl)cc2)C[C@H](C)N3C(C)=O)cc1 (stereo partly drawn) [Example 05IB1]
DC50 (Brd2 [1]): ≤ 0.05 µM
Dmax (Brd2 [1]): 51 to 70%
DC50 (Brd3 [2]): ≤ 0.05 µM
Dmax (Brd3 [2]): ≥ 71%
DC50 (Brd4 (S) [3]): ≤ 0.05 µM
Dmax (Brd4 (S) [3]): ≥ 71%
DC50 (Brd4 (L) [4]): 0.051 to 0.5 µM
Dmax (Brd4 (L) [4]): 26 to 50%
DC50 (Brd4 (S) [5]): ≤ 0.05 µM
Dmax (Brd4 (S) [5]): ≥ 71%
DC50 (Brd4 (L) [6]): ≤ 0.05 µM
Dmax (Brd4 (L) [6]): ≥ 71%
Dmax at 1 µM (Brd2 [9]): 100%
Dmax at 1 µM (Brd3 [10]): 100%
DC50 (Brd2 [7]): 0.051 to 0.5 µM
Dmax (Brd2 [7]): ≤ 25%
DC50 (Brd3 [8]): ≤ 0.05 µM
Dmax (Brd3 [8]): 26 to 50%
Dmax (Brd4 (S) [11]): 100%
Dmax (Brd4 (L) [12]): 100%
Dmax at 1 µM (Brd2 [13]): 100%
Dmax at 1 µM (Brd3 [14]): 100%
Dmax (Brd4 (S) [15]): 100%
Dmax (Brd4 (L) [16]): 100%

CCC[C@H](NC(=O)/C(C#N)=C/c1cccc(Br)n1)c1ccccc1 [Degrasyn, reference compound]
cytotoxicity profile (anti-proliferative effect) (MV4-11 cells): significantly less cytotoxicity
